Reference: publication PMC7558282, “The Anticancer Activity for the Bumetanide-Based Analogs via Targeting the Tumor-Associated Membrane-Bound Human Carbonic Anhydrase-IX Enzyme” (Pharmaceuticals, 2020)

Legend:
hCA-II = hCA-II (Homo sapiens, UniProt P00918); experiment: colorimetric CA-inhibition assay based on CA-esterase activity, hCA-II; settings: hCA-II IC50, three replicate experiments; N/D = non-detected IC50 within the range of the tested concentrations
Method: (§2) Based on the kit manufacturer’s protocol, the candidate inhibitors were dissolved in DMSO at 10 × highest final test concentration and specific aliquots of such working dilutions were incubated with the target hCA isozyme for 10 min at room temperature prior to permit the formation of the enzyme-inhibitor complex. Triplicate experiments were performed for each candidate inhibitor concentration. Parallel wells of solvent and enzyme controls were prepared to test the solvent impact upon the activity of the target enzyme. […] Following incubation, the CA-substrate was added and changes in absorbance (at 405 nm) were monitored for 60 min at room temperature within the kinetic mode. The negative enzyme control wells (without added compounds) were arbitrarily set as 100% enzyme activity. […] Absorbance readings from background wells were subtracted from the compound assay wells in order to account for background hydrolysis activity caused by the buffer solution [44, 45].

HEK-293 cells = experiment: MTT assay, non-tumorigenic HEK-293; format: cell-based; settings: HEK293, normal human embryonic kidney cells
Method: Such differential activity patterns could be explained as off-target activity mediated by the latter compounds being related to a specific cancer cell line.
Figure 3 Antiproliferative activity of compound 9c in tumorigenic A-498 cells and non-tumorigenic HEK-293 cells. The experiment was performed in triplicate and significance was represented as mean ± S.D. ** = p < 0.01; *** = p < 0.001 between indicated groups.
The colorimetric MTT Cell Proliferation® Assay Kit (Cat. №. 10009365; Cayman Chemical^TM, Ann Arbor, MI, USA) has been utilized to assess the cytotoxic impact of the investigated compounds on solid cancer cell lines. […] Color intensity within each well was measured spectrophotometrically using the ROBONIK-P2000® ELISA microplate reader (Bio-Tek^TM, Winooski, VT, USA) at 450 nm while subtracting the background absorbance of multi well plates at 690 nm. The experiment was conducted in triplicates and IC50 values were estimated through linear regression between the logarithm-transformed compound concentrations and corresponding % cell viability = (mean absorbance in test wells/mean absorbance in control wells) ∗ 100, having the response variable slope (four parameters) for all samples.

[1] = system: SCaBER bladder squamous cell carcinoma cells; experiment: MTT cell proliferation assay, SCaBER; format: cell-based; settings: Homo sapiens, 48 h, ±SEM
Method: (§1) Cells were cultured in 96-well plate, at cell density of 1.2–1.8 × 10^4 cells/well, using Dulbecco’s Modified Eagle Medium (Invitrogen^TM, Carlsbad, CA, USA) supplemented with 10% (w/v) fetal bovine serum (Hyclone^TM, Marlborough, MA, USA), 10 ug/mL of insulin (Sigma-Aldrich^TM, St. Louis, MO, USA), and 1% (w/v) penicillin-streptomycin (Sigma-Aldrich^TM, St. Louis, MO, USA). Following 24h-incubation period under 5% CO2 at 37 °C, cells were treated with compounds’ serial concentrations (0.1 µM–100 µM) in DMSO, where the DMSO final concentration in the culture medium never exceeded 0.2% (v/v). Subsequently, the treated microplates were incubated for 48 h at 5% CO2/37 °C prior to examination under the inverted microscope and proceeding for the MTT assay. The culture medium was discarded and 100 µL of complete medium comprising 5 mg/mL MTT dye were dispensed within every well, then plates were reincubated for 2 h at 5% CO2/37 °C. […] Color intensity within each well was measured spectrophotometrically using the ROBONIK-P2000® ELISA microplate reader (Bio-Tek^TM, Winooski, VT, USA) at 450 nm while subtracting the background absorbance of multi well plates at 690 nm. The experiment was conducted in triplicates and IC50 values were estimated through linear regression between the logarithm-transformed compound concentrations and corresponding % cell viability = (mean absorbance in test wells/mean absorbance in control wells) ∗ 100, having the response variable slope (four parameters) for all samples.

[2] = system: A-498 kidney carcinoma cells; experiment: MTT cell proliferation assay, A-498; format: cell-based, human; settings: Homo sapiens, A498, 48 h, ±SEM
Method: as §1

hCA-IX = hCA-IX (Homo sapiens, UniProt Q16790); experiment: colorimetric CA-inhibition assay based on CA-esterase activity, hCA-IX
Method: as §2

IC50 (hCA-II): 0.32 µM | IC50 [1]: 8.8 ± 1.9 µM | IC50 [2]: 5.07 ± 0.11 µM | IC50 (hCA-IX; hCA-IX IC50, three replicate experiments): 0.00442 µM | Selectivity Ratio II/IX (hCA-IX; ratio of IC50 values for isozyme CA-II relative to CA-IX): 72.4
SMILES: CCCCNc1cc(-c2n[nH]c(=S)n2-c2ccc(Br)cc2)cc(S(N)(=O)=O)c1Oc1ccccc1 [Compound 9c]
IC50 (HEK-293 cells): > 50 µM
